Measurements taken from patent EP0333004A2, “Light sensitive diazonium compounds, process for their preparation and their use” (priority 1988, dated 1989).

What was measured:
[1] = Onset of exothermic decomposition (EZ); type: physicochemical; conditions: for Exotherme Zer-setzung (EZ): temperature at which exothermic decomposition begins
[2] = Differential thermal analysis (DTA), violence of decomposition; type: physicochemical; conditions: characterises the violence of decomposition
[3] = Combustion number (Brennziffer, BZ), safety characteristic; type: physicochemical; conditions: solid isolated diazonium salt form
[4] = Explosion hazard; type: physicochemical
[5] = Solubility in water; type: physicochemical; conditions: 20 °C
[6] = Impact sensitivity; type: physicochemical
[7] = Dust explosion class (ST), safety characteristic; type: physicochemical; conditions: solid isolated diazonium salt form
[8] = species and route not given; cited from earlier work

Compound: 4-N,N-Dimethylaminobenzoldiazonium-sulfosalicylat [Sulfosalicylat R1=R2=CH3 R3 = H]
- exotherme Zersetzung, höher als bei dem entsprechenden Zinkchlorid-Doppelsalz ([1]; difference to the corresponding zinc chloride double salt): 40 °C
- Exotherme Zer-setzung (EZ) [1]: 140 °C
- Differential-thermoanalyse (DTA) [2]: -490 kJ/kg
- Brenn-ziffer (BZ) [3]: 3
- explosions-gefährlich [4]: nein
- Löslichkeit in Wasser [5]: 10,4 g/l
- schlagemp-findlich [6]: nein
- Staubexplo-sionsklasse (ST) [7]: 1

Compound: 4-N,N-Dimethylaminobenzoldiazoniumchlorzinkat [ZnCl2 stabilisiert R1=R2=CH3 R3 = H, reference compound]
- Exotherme Zer-setzung (EZ) [1]: 100 °C
- Differential-thermoanalyse (DTA) [2]: -720 kJ/kg
- Brenn-ziffer (BZ) [3]: 3
- explosions-gefährlich [4]: nein
- schlagemp-findlich [6]: nein
- Staubexplo-sionsklasse (ST) [7]: 0

Compound: CN(C)c1ccc([N+]#N)cc1 [4-N,N-Dimethylaminobenzoldiazonium-sulfoisophthalat, reference compound]
- solubility ([5]; read-out: Löslichkeit in Wasser): 3800 µg/mL

Compound: Cc1cc([N+]#N)ccc1N1CCCC1 [Sulfosalicylat R1,R2=(CH2)4 R3 = CH3, 3-Methyl-4-N-pyrrolidinobenzoldiazonium-sulfosalicylat]
- Exotherme Zer-setzung (EZ) [1]: 120 °C
- Differential-thermoanalyse (DTA) [2]: -400 kJ/kg
- Brenn-ziffer (BZ) [3]: 3
- explosions-gefährlich [4]: nein
- schlagemp-findlich [6]: nein
- Staubexplo-sionsklasse (ST) [7]: 1

Compound: O=C(O)c1cc(S(=O)(=O)O)ccc1O [Sulfosalicylsäure]
- LD₅₀-Wert (LD - Letale Dosis) [8]: 2450 mg/kg
